Reference: publication PMC5218480 (PLoS ONE, 2017)

Tested on: MV-4-11 cells
Test: Gene expression microarray analysis (Affymetrix PrimeView) and GSEA
Assay type: cell-based, human
Set-up: RFU PODN (11730768_x_at) / Fold change /veh PODN (11730768_x_at) / RFU LINC00158 (11744669_a_at) / Fold change /veh LINC00158 (11744669_a_at) / RFU DUSP10 (11751237_a_at) / Fold change /veh DUSP10 (11751237_a_at) / RFU ID3 (11757404_x_at) / Fold change /veh ID3 (11757404_x_at) / RFU PLEKHG5 (11737974_s_at) / Fold change /veh PLEKHG5 (11737974_s_at) / RFU LRRC4B (11730491_at) / Fold change /veh LRRC4B (11730491_at) / RFU GIMAP4 (11747438_a_at) / Fold change /veh GIMAP4 (11747438_a_at) / RFU KRT8 (11758183_x_at) / Fold change /veh KRT8 (11758183_x_at) / RFU CNN1 (11734310_a_at) / Fold change /veh CNN1 (11734310_a_at) / RFU VPS37D (11726825_at) / Fold change /veh VPS37D (11726825_at) / RFU C10orf10 (11716522_x_at) / Fold change /veh C10orf10 (11716522_x_at) / RFU KIR2DL2 /// KIR2DL4 /// KIR2DL5A /// KIR2DL5B /// KIR2DS1 /// KIR2DS2 /// KIR2DS3 /// KIR2DS4 /// KIR3DL3 /// KIR3DL3 /// KIR3DS1 (11738374_at) / Fold change /veh KIR2DL2 /// KIR2DL4 /// KIR2DL5A /// KIR2DL5B /// KIR2DS1 /// KIR2DS2 /// KIR2DS3 /// KIR2DS4 /// KIR3DL3 /// KIR3DL3 /// KIR3DS1 (11738374_at) / RFU C1QL1 (11718748_at) / Fold change /veh C1QL1 (11718748_at) / RFU TMPRSS4 (11747572_a_at) / Fold change /veh TMPRSS4 (11747572_a_at) / RFU HAMP (11756126_x_at) / Fold change /veh HAMP (11756126_x_at) / RFU RNFT2 (11725882_a_at) / Fold change /veh RNFT2 (11725882_a_at) / RFU NR4A2 (11747474_a_at) / Fold change /veh NR4A2 (11747474_a_at) / RFU ABCC12 (11746883_a_at) / Fold change /veh ABCC12 (11746883_a_at) / RFU TMEM136 (11760407_x_at) / Fold change /veh TMEM136 (11760407_x_at) / RFU CLDN22 /// WWC2 (11732394_at) / Fold change /veh CLDN22 /// WWC2 (11732394_at) / RFU HLA-DPB1 (11760878_x_at) / Fold change /veh HLA-DPB1 (11760878_x_at) / RFU SPINT1 (11716480_a_at) / Fold change /veh SPINT1 (11716480_a_at) / RFU GAP43 (11754022_s_at) / Fold change /veh GAP43 (11754022_s_at) / RFU A4GNT (11735810_at) / Fold change /veh A4GNT (11735810_at) / RFU PRB3 (11715151_x_at) / Fold change /veh PRB3 (11715151_x_at) / RFU TUBB4B (11761932_at) / Fold change /veh TUBB4B (11761932_at) / RFU CAPN14 (11732068_a_at) / Fold change /veh CAPN14 (11732068_a_at) / RFU TMCC2 (11721928_a_at) / Fold change /veh TMCC2 (11721928_a_at) / RFU IRGQ (11745062_a_at) / Fold change /veh IRGQ (11745062_a_at) / RFU FAM174B (11720279_a_at) / Fold change /veh FAM174B (11720279_a_at) / RFU TMPRSS4 (11748680_a_at) / Fold change /veh TMPRSS4 (11748680_a_at) / RFU FAM212B (11763350_a_at) / Fold change /veh FAM212B (11763350_a_at) / RFU PLEKHG5 (11743358_a_at) / Fold change /veh PLEKHG5 (11743358_a_at) / RFU ZSCAN30 (11745921_a_at) / Fold change /veh ZSCAN30 (11745921_a_at) / RFU CMKLR1 (11741424_a_at) / Fold change /veh CMKLR1 (11741424_a_at) / RFU LOC101060620 /// MAPK8IP1 (11723275_at) / Fold change /veh LOC101060620 /// MAPK8IP1 (11723275_at) / RFU SPTSSB (11747773_x_at) / Fold change /veh SPTSSB (11747773_x_at) / RFU PRSS12 (11739890_at) / Fold change /veh PRSS12 (11739890_at) / RFU BIN1 (11741810_x_at) / Fold change /veh BIN1 (11741810_x_at) / RFU WNT11 (11732464_a_at) / Fold change /veh WNT11 (11732464_a_at) / RFU C10orf10 (11716521_a_at) / Fold change /veh C10orf10 (11716521_a_at) / RFU C5orf56 (11738089_at) / Fold change /veh C5orf56 (11738089_at) / RFU CYB561 (11721691_x_at) / Fold change /veh CYB561 (11721691_x_at) / RFU ANKRD19P (11752326_a_at) / Fold change /veh ANKRD19P (11752326_a_at) / RFU OR2T12 /// OR2T33 /// OR2T8 (11738714_s_at) / Fold change /veh OR2T12 /// OR2T33 /// OR2T8 (11738714_s_at) / RFU VCAN (11748164_a_at) / Fold change /veh VCAN (11748164_a_at) / RFU JSRP1 (11732532_at) / Fold change /veh JSRP1 (11732532_at) / RFU KRTAP10-11 (11738290_x_at) / Fold change /veh KRTAP10-11 (11738290_x_at) / RFU MYO3A (11730013_a_at) / Fold change /veh MYO3A (11730013_a_at) / RFU EBF3 (11725865_a_at) / Fold change /veh EBF3 (11725865_a_at) / RFU CAMK2N1 (11719241_x_at) / Fold change /veh CAMK2N1 (11719241_x_at) / RFU C5orf56 (11738088_a_at) / Fold change /veh C5orf56 (11738088_a_at) / RFU OLFML3 (11715873_a_at) / Fold change /veh OLFML3 (11715873_a_at) / RFU LOC100653217 /// NTM (11731650_a_at) / Fold change /veh LOC100653217 /// NTM (11731650_a_at) / RFU MAPK11 (11762145_a_at) / Fold change /veh MAPK11 (11762145_a_at) / RFU FIZ1 (11724087_x_at) / Fold change /veh FIZ1 (11724087_x_at) / RFU OASL (11726364_x_at) / Fold change /veh OASL (11726364_x_at) / RFU SOX15 (11748057_x_at) / Fold change /veh SOX15 (11748057_x_at) / RFU CD79A (11719716_a_at) / Fold change /veh CD79A (11719716_a_at) / RFU HIST1H1D (11736915_at) / Fold change /veh HIST1H1D (11736915_at) / RFU CASKIN2 (11723855_a_at) / Fold change /veh CASKIN2 (11723855_a_at) / RFU LOC730098 (11760151_x_at) / Fold change /veh LOC730098 (11760151_x_at) / RFU OR4N2 (11742367_at) / Fold change /veh OR4N2 (11742367_at) / RFU PRRT2 (11749266_a_at) / Fold change /veh PRRT2 (11749266_a_at) / RFU SNX32 (11753110_a_at) / Fold change /veh SNX32 (11753110_a_at) / RFU CDHR5 (11726645_a_at) / Fold change /veh CDHR5 (11726645_a_at) / RFU RCAN1 (11760418_a_at) / Fold change /veh RCAN1 (11760418_a_at) / RFU FAM167A (11723789_a_at) / Fold change /veh FAM167A (11723789_a_at) / RFU FAM26E (11764081_at) / Fold change /veh FAM26E (11764081_at) / RFU ISYNA1 (11749810_s_at) / Fold change /veh ISYNA1 (11749810_s_at) / RFU ACY1 (11761880_at) / Fold change /veh ACY1 (11761880_at) / RFU 11764098_at / Fold change /veh 11764098_at / RFU SAMD14 (11745864_x_at) / Fold change /veh SAMD14 (11745864_x_at) / RFU NPB (11741838_a_at) / Fold change /veh NPB (11741838_a_at) / RFU TMPRSS6 (11731388_a_at) / Fold change /veh TMPRSS6 (11731388_a_at) / RFU KRTAP10-2 (11738614_at) / Fold change /veh KRTAP10-2 (11738614_at) / RFU ARHGAP8 /// PRR5-ARHGAP8 (11727945_x_at) / Fold change /veh ARHGAP8 /// PRR5-ARHGAP8 (11727945_x_at) / RFU KRTAP5-7 /// NADSYN1 (11734609_at) / Fold change /veh KRTAP5-7 /// NADSYN1 (11734609_at) / RFU RASL12 (11751679_a_at) / Fold change /veh RASL12 (11751679_a_at) / RFU CDKN2B (11736163_a_at) / Fold change /veh CDKN2B (11736163_a_at) / RFU PRF1 (11729649_at) / Fold change /veh PRF1 (11729649_at) / RFU, ZNF638 /// ZNF638-IT1 / Fold change vs veh, ZNF638 /// ZNF638-IT1 / RFU, PANK3 / Fold change vs veh, PANK3 / RFU, SH3YL1 / Fold change vs veh, SH3YL1 / RFU, ZEB2 / Fold change vs veh, ZEB2 / RFU, NRIP1 / Fold change vs veh, NRIP1 / RFU, PTTG1IP / Fold change vs veh, PTTG1IP / RFU, CAPN2 / Fold change vs veh, CAPN2 / RFU, MED14 / Fold change vs veh, MED14 / RFU, SNORA58 / Fold change vs veh, SNORA58 / RFU, C1orf63 / Fold change vs veh, C1orf63 / RFU, LRRFIP1 / Fold change vs veh, LRRFIP1 / RFU, NDUFAF7 / Fold change vs veh, NDUFAF7 / RFU, SLC12A2 / Fold change vs veh, SLC12A2 / RFU, IBTK / Fold change vs veh, IBTK / RFU, ESF1 / Fold change vs veh, ESF1 / Fold change vs veh, TMEM50B / RFU, TAOK1 / Fold change vs veh, TAOK1 / RFU, ACBD3 / Fold change vs veh, ACBD3 / RFU, TMA16 / Fold change vs veh, TMA16 / RFU, RWDD3 / Fold change vs veh, RWDD3 / RFU, BCAT1 / Fold change vs veh, BCAT1 / RFU, EDEM3 / Fold change vs veh, EDEM3 / RFU, TMEM33 / Fold change vs veh, TMEM33 / RFU, WDR75 / Fold change vs veh, WDR75 / RFU, AHCTF1 / Fold change vs veh, AHCTF1 / RFU, TFRC / Fold change vs veh, TFRC / RFU, ZDHHC17 / Fold change vs veh, ZDHHC17 / RFU, NOM1 / Fold change vs veh, NOM1 / RFU, ARL8B / Fold change vs veh, ARL8B / RFU, ZBTB11 / Fold change vs veh, ZBTB11 / RFU, TAMM41 / Fold change vs veh, TAMM41 / RFU, KIAA1704 /// LOC100996395 / Fold change vs veh, KIAA1704 /// LOC100996395 / RFU, ING1 / Fold change vs veh, ING1 / RFU, TRMT61B / Fold change vs veh, TRMT61B / RFU, FUBP3 / Fold change vs veh, FUBP3 / RFU, TP53 / Fold change vs veh, TP53 / RFU, TNKS2 / Fold change vs veh, TNKS2 / RFU, ZFP14 / Fold change vs veh, ZFP14 / RFU, ACTR2 / Fold change vs veh, ACTR2 / RFU, PPP3R1 / Fold change vs veh, PPP3R1 / RFU, PIK3R1 / Fold change vs veh, PIK3R1 / RFU, HNRNPA1 / Fold change vs veh, HNRNPA1 / RFU, RNF170 / Fold change vs veh, RNF170 / RFU, ZNF28 / Fold change vs veh, ZNF28 / RFU, RNGTT / Fold change vs veh, RNGTT / RFU, OGT / Fold change vs veh, OGT / RFU, BRD1 / Fold change vs veh, BRD1 / RFU, MARS / Fold change vs veh, MARS / RFU, ZNF655 / Fold change vs veh, ZNF655 / RFU, FAHD1 / Fold change vs veh, FAHD1 / RFU, BDP1 / Fold change vs veh, BDP1 / RFU, LRRCC1 / Fold change vs veh, LRRCC1 / RFU, ARID1A / Fold change vs veh, ARID1A / RFU, ZNF146 / Fold change vs veh, ZNF146 / RFU, ZNF330 / Fold change vs veh, ZNF330 / RFU, GPN3 / Fold change vs veh, GPN3 / RFU, C9orf123 / Fold change vs veh, C9orf123 / RFU, N4BP2L2 / Fold change vs veh, N4BP2L2 / RFU, ARFIP1 / Fold change vs veh, ARFIP1 / RFU, FAM179B / Fold change vs veh, FAM179B / RFU, BCL10 / Fold change vs veh, BCL10 / RFU, UHRF1BP1L / Fold change vs veh, UHRF1BP1L / RFU, BET1 / Fold change vs veh, BET1 / RFU, CNOT2 / Fold change vs veh, CNOT2 / RFU, ZNF268 / Fold change vs veh, ZNF268 / Fold change vs veh, ZNF507 / RFU, DGCR2 / Fold change vs veh, DGCR2 / RFU, WDSUB1 / Fold change vs veh, WDSUB1 / Fold change vs veh, HSP90B1 /// MIR3652 / RFU, ADSS / Fold change vs veh, ADSS / RFU, GK / Fold change vs veh, GK / RFU, ZNF148 / Fold change vs veh, ZNF148 / RFU, TAF9 / Fold change vs veh, TAF9 / RFU, SLC1A5 / Fold change vs veh, SLC1A5 / RFU, SLMO2 / Fold change vs veh, SLMO2 / RFU, ABCC4 / Fold change vs veh, ABCC4 / RFU, LOC101060439 /// RAP1B / Fold change vs veh, LOC101060439 /// RAP1B / RFU, RFX7 / Fold change vs veh, RFX7 / RFU, GTPBP10 / Fold change vs veh, GTPBP10 / RFU, CNEP1R1 / Fold change vs veh, CNEP1R1 / RFU, BIVM-ERCC5 /// ERCC5 / Fold change vs veh, BIVM-ERCC5 /// ERCC5 / RFU, ILF3 / Fold change vs veh, ILF3 / RFU 11762660_at / Fold change /veh 11762660_at / RFU VCAN (11757783_s_at) / Fold change /veh VCAN (11757783_s_at) / RFU DDX43 (11728927_at) / Fold change /veh DDX43 (11728927_at) / RFU KRT8 (11758188_x_at) / Fold change /veh KRT8 (11758188_x_at) / RFU NKD1 (11759106_at) / Fold change /veh NKD1 (11759106_at) / RFU SRD5A1 (11742802_a_at) / Fold change /veh SRD5A1 (11742802_a_at) / RFU TPSAB1 /// TPSB2 (11721975_s_at) / Fold change /veh TPSAB1 /// TPSB2 (11721975_s_at) / RFU GSTM3 (11746129_a_at) / Fold change /veh GSTM3 (11746129_a_at) / RFU IL23R (11737362_x_at) / Fold change /veh IL23R (11737362_x_at) / RFU TMEM51 (11727254_a_at) / Fold change /veh TMEM51 (11727254_a_at) / RFU PIWIL2 (11732686_x_at) / Fold change /veh PIWIL2 (11732686_x_at) / RFU ORM1 (11744905_x_at) / Fold change /veh ORM1 (11744905_x_at) / RFU CCDC152 (11743942_at) / Fold change /veh CCDC152 (11743942_at) / RFU ECM1 (11717891_a_at) / Fold change /veh ECM1 (11717891_a_at) / RFU IL23R (11748794_a_at) / Fold change /veh IL23R (11748794_a_at) / RFU TNFAIP8L3 (11732012_x_at) / Fold change /veh TNFAIP8L3 (11732012_x_at) / RFU MBOAT4 (11741988_at) / Fold change /veh MBOAT4 (11741988_at) / RFU 11764193_at / Fold change /veh 11764193_at / RFU TMEM53 (11763286_at) / Fold change /veh TMEM53 (11763286_at) / RFU MAGEB2 (11727129_at) / Fold change /veh MAGEB2 (11727129_at) / RFU TMEM200A (11744735_a_at) / Fold change /veh TMEM200A (11744735_a_at) / RFU CCDC152 (11751479_a_at) / Fold change /veh CCDC152 (11751479_a_at) / RFU FAM211A (11726209_a_at) / Fold change /veh FAM211A (11726209_a_at) / RFU RGS16 (11746705_a_at) / Fold change /veh RGS16 (11746705_a_at) / RFU VCAN (11755009_s_at) / Fold change /veh VCAN (11755009_s_at) / RFU RHOB (11743442_s_at) / Fold change /veh RHOB (11743442_s_at) / RFU RGS16 (11720943_a_at) / Fold change /veh RGS16 (11720943_a_at) / RFU RGS16 (11720944_at) / Fold change /veh RGS16 (11720944_at) / RFU, VPS4B / Fold change vs veh, VPS4B / RFU, CREB1 / Fold change vs veh, CREB1 / RFU, DNAJC13 / Fold change vs veh, DNAJC13 / RFU, GNAQ / Fold change vs veh, GNAQ / RFU, CDK5R1 / Fold change vs veh, CDK5R1 / RFU, ZRANB3 / Fold change vs veh, ZRANB3 / RFU, CUL4A / Fold change vs veh, CUL4A / RFU, CCNY / Fold change vs veh, CCNY / RFU, UFL1 / Fold change vs veh, UFL1 / RFU, COG3 / Fold change vs veh, COG3 / RFU, DIAPH2 / Fold change vs veh, DIAPH2 / RFU, SKA2 / Fold change vs veh, SKA2 / RFU, AFF3 / Fold change vs veh, AFF3 / RFU, LMF1 / Fold change vs veh, LMF1 / RFU, IPO11 / Fold change vs veh, IPO11 / RFU, DFFB / Fold change vs veh, DFFB / RFU, FOXP1 / Fold change vs veh, FOXP1 / RFU, CARD8 / Fold change vs veh, CARD8 / RFU, STRN3 / Fold change vs veh, STRN3 / RFU, ADK / Fold change vs veh, ADK / RFU, RASSF2 / Fold change vs veh, RASSF2 / RFU, WIPF1 / Fold change vs veh, WIPF1 / RFU, LARP1B / Fold change vs veh, LARP1B / RFU, RASA1 / Fold change vs veh, RASA1 / RFU, RB1 / Fold change vs veh, RB1 / RFU, PPFIA1 / Fold change vs veh, PPFIA1 / RFU, MAT2A / Fold change vs veh, MAT2A / RFU, CCT5 / Fold change vs veh, CCT5 / RFU, WDR92 / Fold change vs veh, WDR92 / RFU, CUX1 / Fold change vs veh, CUX1 / RFU, TTC7A / Fold change vs veh, TTC7A / RFU, TMEM135 / Fold change vs veh, TMEM135 / RFU, DEPTOR / Fold change vs veh, DEPTOR / RFU, CPM / Fold change vs veh, CPM / RFU, DNAJB6 / Fold change vs veh, DNAJB6 / RFU, CACNA2D3 / Fold change vs veh, CACNA2D3 / RFU, DTX4 / Fold change vs veh, DTX4 / RFU, TFCP2 / Fold change vs veh, TFCP2 / RFU, GMCL1 /// GMCL1P1 / Fold change vs veh, GMCL1 /// GMCL1P1 / RFU, AEBP2 / Fold change vs veh, AEBP2 / RFU, SNHG1 /// SNORD22 /// SNORD25 /// SNORD26 /// SNORD27 /// SNORD28 /// SNORD29 /// SNORD31 / Fold change vs veh, SNHG1 /// SNORD22 /// SNORD25 /// SNORD26 /// SNORD27 /// SNORD28 /// SNORD29 /// SNORD31 / Fold change (Aza/veh), C12orf56 (ProbeSet 11735607_a_at) / Fold change (ACY-1035/veh), C12orf56 (ProbeSet 11735607_a_at) / Fold change (Aza/veh), FGFR1OP (ProbeSet 11751329_s_at) / Fold change (ACY-1035/veh), FGFR1OP (ProbeSet 11751329_s_at) / Fold change (Aza/veh), VPS36 (ProbeSet 11739960_a_at) / Fold change (ACY-1035/veh), VPS36 (ProbeSet 11739960_a_at) / RFU SYPL1 (11715823_x_at) / Fold change /veh SYPL1 (11715823_x_at) / RFU IGFBP7 (11715501_s_at) / Fold change /veh IGFBP7 (11715501_s_at) / RFU REEP3 (11722064_at) / Fold change /veh REEP3 (11722064_at) / RFU IGLL1 (11728026_x_at) / Fold change /veh IGLL1 (11728026_x_at): dose or concentration left out as unconfirmed
Details: MV-4-11 cells, 48 hours

Nc1ncn([C@@H]2O[C@H](CO)[C@@H](O)[C@H]2O)c(=O)n1 [azacitidine]
Fold change /veh LOC101060620 /// MAPK8IP1 (11723275_at): 0.98
